This passage reports Ki results from patent EP1025097B1, “1-(2-NAPHTHYL) AND 1-(2-AZANAPHTHYL)-4-(1-PHENYLMETHYL)PIPERAZINES BEING DOPAMINE D 4? RECEPTOR SUBTYPE LIGANDS” (NEUROGEN CORPORATION, priority 1997, dated 1999).

In this assay the target is T1, D2 receptors (Chlorocebus aethiops, UniProt P52702).
T1 construct: expressed in transfected cells; host or cells: COS cells
Put plainly: Assay for D2 receptor binding activity (3H-YM 09151-2 displacement, COS cell pellets). Particulars: recombinant receptor in COS cells; 0.5 nM 3H-YM 09151-2. More on the design: species or system African Green monkey. As for the experimental part:
Pellets of COS cells containing recombinantly produced D2 or D4 receptors from African Green monkey are used for the assays. The sample is homogenized in 100 volumes (w/vol) of 0.05 M Tris HCl buffer at 4° C and pH 7.4. The sample is then centrifuged at 30,000 x g and resuspended and rehomogenized. The sample is again centrifuged as described above and the final tissue sample is frozen until use. The tissue is resuspended 1:20 (wt/vol) in 0.05 M Tris HCl buffer containing 100 mM NaCl.
Incubations are carried out at […] and contain 0.4 ml of tissue sample, 0.5 nM ^3H-YM 09151-2 (Nemonapride, cis-5-Chloro-2-methoxy-4-(methylamino)-N-(2-methyl-2-(phenylmethyl)-3-pyrrolidinyl)benzamide)and the compound of interest in a total incubation of 1.0 ml. Nonspecific binding is defined as that binding found in the presence of […] spiperone; without further additions, nonspecific binding is less than 20% of total binding. Binding characteristics for examples of compounds encompassed within Formulae II, III and V for the D2 and D4 receptor subtypes are shown in Table 2 for […].

pKi: −log10 of the molar value.

T1 sequence (P52702 whole entry): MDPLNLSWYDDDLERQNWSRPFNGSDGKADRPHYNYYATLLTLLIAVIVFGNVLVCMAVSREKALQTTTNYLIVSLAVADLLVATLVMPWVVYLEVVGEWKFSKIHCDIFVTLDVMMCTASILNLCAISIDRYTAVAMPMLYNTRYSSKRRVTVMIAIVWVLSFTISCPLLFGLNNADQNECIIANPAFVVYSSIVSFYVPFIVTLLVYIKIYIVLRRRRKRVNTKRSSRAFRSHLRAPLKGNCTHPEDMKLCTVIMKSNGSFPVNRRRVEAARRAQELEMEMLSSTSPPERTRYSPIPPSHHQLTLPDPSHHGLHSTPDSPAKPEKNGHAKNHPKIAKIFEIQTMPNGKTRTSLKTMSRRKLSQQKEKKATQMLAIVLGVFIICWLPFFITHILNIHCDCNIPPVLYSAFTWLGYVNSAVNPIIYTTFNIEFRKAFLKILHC

Turning to `Cc1ccc(CN2CCN(c3ccc4ccccc4n3)CC2)cc1` [Compound 2], the negative-log Ki (pKi) is less than 5.40.

In the case of `Clc1ccc(CN2CCN(c3cnc4ccccc4n3)CC2)cc1` [Compound 3], the pKi was less than 5.40.

`Clc1ccc(CN2CCN(c3ccc4ccccc4c3)CC2)cc1` [Compound 6]: the pKi is less than 5.40.

The pKi is the Ki on a negative log10 scale, so that one unit is a factor of ten.
